Data on seven compounds can be found in US5985844A, “Homoerythromycin A derivatives modified at the 4"-and 8A-positions” (Merck & Co., Inc., priority 1992, dated 1999).

Converted amounts (≈) assume the structure as drawn. Read-outs that look alike come from different tables or passages of the source.

Common to all, as to assay: liquid turbidimetric microtiter MIC, broth media
Assay type in all cases: cell-based

Assay [1] relates to Klebsiella pneumoniae MB 4005. From the text: (§1) The antibacterial activities of the compounds of Examples 8 and 10 against a panel of aerobic Gram positive and negative bacteria is shown in Table I. Similarly, the antibacterial activities of the compounds of Examples 89, 94, 96, and 97 are presented in Table II. The assay employs a liquid turbidimetric microtiter method for the determination of the minimum inhibitory concentration (MIC) in broth media. […] The MIC is generally not an absolute value but rather a concentration range that falls within a two-fold dilution limit. Generally twelve two-fold dilutions of the test compound are employed with the initial concentration set at 128 mcg/ml.

Assay [2] deals with Staphylococcus epidermidis MB 5414.
Text: as §1

The test system of assay [3] is Streptococcus pneumoniae CL 2883.
Text: as §1

For assay [4], the system named is Enterococcus faecalis MB 5407.
Text: as §1

Assay [5] concerns Streptococcus agalactiae CL 1343. Particulars: CL1343.
Text: as §1

The subject of assay [6] is Pseudomonas stutzeri MB 1231. The following applies: Stutzerimonas stutzeri, MB1231.
Text: as §1

Assay [7] concerns Staphylococcus haemolyticus MB 5412. The following applies: MB5412.
Text: as §1

The subject of assay [8] is Streptococcus pyogenes MB 2874.
Text: as §1

A further assay relates to Escherichia coli MB 4926. The following applies: MB4926.
Text: as §1

The test system of a further assay is Escherichia coli MB 2884.
Text: as §1

For assay [9], the system named is Enterococcus faecium MB 5416. The following applies: MB5416.
Text: as §1

The test system of assay [10] is Staphylococcus aureus MB 2865.
Text: as §1

Assay [11] concerns Streptococcus viridans CL 2943. Particulars: CL2943.
Text: as §1

Assay [12] concerns Streptococcus pyogenes MB 54061. The following applies: MB54061.
Text: as §1

Assay [13] has as its system Haemophilus influenzae AT 43163.
Text: as §1

The test system of assay [14] is Enterobacter cloacae CL 4298.
Text: as §1

Assay [15] relates to Haemophilus influenzae MB 5363.
Text: as §1

For `CC[C@H]1OC(=O)[C@H](C)[C@@H](O[C@H]2C[C@@](C)(OC)[C@@H](O)[C@H](C)O2)[C@H](C)[C@@H](O[C@@H]2O[C@H](C)C[C@H](N(C)C)[C@H]2O)[C@](C)(O)C[C@@H](C)N(C)C[C@H](C)[C@@H](O)[C@]1(C)O` [Example 10, 9-Deoxo-8a-aza-8a-methyl-8a-homoerythromycin A], the MIC in assay [1] (MB4005, read-out: MIC) was 2 µg/mL (≈ 2.67 µM); in [2] (MB5414, read-out: MIC), 1 µg/mL (≈ 1.34 µM); in assay [3] (CL2883, read-out: MIC), at most 0.06 µg/mL; in [4] (MB5407, read-out: MIC), 4 µg/mL (≈ 5.34 µM); in assay [5], at most 0.06 µg/mL; in assay [6], at most 0.06 µg/mL. The MIC in [7] was 0.5 µg/mL (≈ 0.668 µM); in assay [8] (MB2874, read-out: MIC), at most 0.06 µg/mL; with Escherichia coli MB 4926, 0.06 µg/mL (≈ 0.0801 µM); in the assay on Escherichia coli MB 2884 (MB2884, read-out: MIC) it was 1 µg/mL (≈ 1.34 µM); in assay [9], 0.25 µg/mL (≈ 0.334 µM); in assay [10] (MB2865, read-out: MIC), 0.5 µg/mL (≈ 0.668 µM). Also, the MIC was found to be 1 µg/mL (≈ 1.34 µM) in assay [11] and 128 µg/mL (≈ 171 µM) in assay [12].

Regarding `CC[C@H]1OC(=O)[C@H](C)[C@@H](O[C@H]2C[C@@](C)(OC)[C@@H](O)[C@H](C)O2)[C@H](C)[C@@H](O[C@@H]2O[C@H](C)C[C@H](N(C)C)[C@H]2O)[C@](C)(O)C[C@@H](C)NC[C@H](C)[C@@H](O)[C@]1(C)O` [Example 8, 9-Deoxo-8a-aza-8a-homoerythromycin A], the MIC in assay [1] (MB4005, read-out: MIC) is 8 µg/mL (≈ 10.9 µM); in assay [2] (MB5414, read-out: MIC), 1 µg/mL (≈ 1.36 µM); in [3] (CL2883, read-out: MIC), at most 0.06 µg/mL; in [4] (MB5407, read-out: MIC), 8 µg/mL (≈ 10.9 µM); in assay [5] it was at most 0.06 µg/mL; in [6], at most 0.06 µg/mL. Besides, the MIC in assay [7] was 0.5 µg/mL (≈ 0.68 µM); in assay [8] (MB2874, read-out: MIC) it was at most 0.06 µg/mL; with Escherichia coli MB 4926, 2 µg/mL (≈ 2.72 µM); in the assay with Escherichia coli MB 2884 (MB2884, read-out: MIC), 4 µg/mL (≈ 5.44 µM); in [9], 0.25 µg/mL (≈ 0.34 µM); in assay [10] (MB2865, read-out: MIC), 0.5 µg/mL (≈ 0.68 µM). Also, the MIC in assay [11] is 8 µg/mL (≈ 10.9 µM); in [12], 128 µg/mL (≈ 174 µM).

As for `CC[C@H]1OC(=O)[C@H](C)[C@@H](O[C@H]2C[C@@](C)(OC)[C@H](N)[C@H](C)O2)[C@H](C)[C@@H](O[C@@H]2O[C@H](C)C[C@H](N(C)C)[C@H]2O)[C@](C)(O)C[C@@H](C)N(C)C[C@H](C)[C@@H](O)[C@]1(C)O` [Example 97, 4"-Deoxy-4"-(R)-amino-9-deoxo-8a-aza-8a-methyl-8a-homoerythromycin A], the MIC in [1] is 0.25 µg/mL (≈ 0.334 µM); in [13], 0.25 µg/mL (≈ 0.334 µM); in [2], 0.5 µg/mL (≈ 0.668 µM); in assay [3], at most 0.06 µg/mL; in assay [4], 2 µg/mL (≈ 2.67 µM); in assay [14] it was 0.12 µg/mL (≈ 0.16 µM). The MIC in assay [8] is at most 0.06 µg/mL; with Escherichia coli MB 2884, 0.25 µg/mL (≈ 0.334 µM); in [15], 0.5 µg/mL (≈ 0.668 µM); in assay [10] it was 1 µg/mL (≈ 1.34 µM).

Take `CC[C@H]1OC(=O)[C@H](C)[C@@H](O[C@H]2C[C@@](C)(OC)[C@@H](N)[C@H](C)O2)[C@H](C)[C@@H](O[C@@H]2O[C@H](C)C[C@H](N(C)C)[C@H]2O)[C@](C)(O)C[C@@H](C)N(C)C[C@H](C)[C@@H](O)[C@]1(C)O` [Example 96, 4"-Deoxy-4"-(S)-amino-9-deoxo-8a-aza-8a-methyl-8a-homoerythromycin A]: the MIC is 0.12 µg/mL (≈ 0.16 µM) in assay [1]; 0.25 µg/mL (≈ 0.334 µM) in [13]; 0.51 µg/mL (≈ 0.682 µM) in assay [2]; at most 0.06 µg/mL in [3]; 2 µg/mL (≈ 2.67 µM) in assay [4]; at most 0.06 µg/mL in assay [14]. The MIC is at most 0.06 µg/mL in assay [8], 0.12 µg/mL (≈ 0.16 µM) against Escherichia coli MB 2884, 0.25 µg/mL (≈ 0.334 µM) in assay [15] and 1 µg/mL (≈ 1.34 µM) in assay [10].

Regarding `CC[C@H]1OC(=O)[C@H](C)[C@@H](O[C@H]2C[C@@](C)(OC)[C@H](O)[C@H](C)O2)[C@H](C)[C@@H](O[C@@H]2O[C@H](C)C[C@H](N(C)C)[C@H]2O)[C@](C)(O)C[C@@H](C)N(C)C[C@H](C)[C@@H](O)[C@]1(C)O` [Example 89, 4"-epi-9-deoxo-8a-aza-8a-methyl-8a-homoerythromycin A], the MIC was 1 µg/mL (≈ 1.34 µM) in [1] (MB4005, read-out: MIC); 0.5 µg/mL (≈ 0.668 µM) in assay [13] (AT43163, read-out: MIC); 0.25 µg/mL (≈ 0.334 µM) in assay [2] (MB5414, read-out: MIC); at most 0.06 µg/mL in assay [3] (CL2883, read-out: MIC); 1 µg/mL (≈ 1.34 µM) in [4] (MB5407, read-out: MIC); 0.5 µg/mL (≈ 0.668 µM) in assay [14] (CL4298, read-out: MIC). The MIC was at most 0.06 µg/mL in [8] (MB2874, read-out: MIC); 1 µg/mL (≈ 1.34 µM) in the assay with Escherichia coli MB 2884 (MB2884, read-out: MIC); 0.5 µg/mL (≈ 0.668 µM) in assay [15] (MB5363, read-out: MIC); 0.5 µg/mL (≈ 0.668 µM) in [10] (MB2865, read-out: MIC).

Turning to `CC[C@H]1OC(=O)[C@H](C)[C@@H](O[C@H]2C[C@@](C)(OC)[C@@H](O)[C@H](C)O2)[C@H](C)[C@@H](O[C@@H]2O[C@H](C)C[C@H](N(C)C)[C@H]2O)[C@](C)(O)C[C@@H](C)C(=O)[C@H](C)[C@@H](O)[C@]1(C)O` [Erythromycin A, erythromycin A], the MIC is 32 µg/mL (≈ 43.6 µM) in assay [1]; 2 µg/mL (≈ 2.73 µM) in assay [13]; 0.12 µg/mL (≈ 0.164 µM) in assay [2]; at most 0.06 µg/mL in [3]; 1 µg/mL (≈ 1.36 µM) in assay [4]; 16 µg/mL (≈ 21.8 µM) in assay [14]. The MIC in assay [8] was at most 0.06 µg/mL; in the assay on Escherichia coli MB 2884 (MB2884, read-out: MIC), 16 µg/mL (≈ 21.8 µM); in assay [15], 2 µg/mL (≈ 2.73 µM); in assay [10] it was 0.12 µg/mL (≈ 0.164 µM).

In the case of “4"-Deoxy-4"-amino-9-deoxo-8a-aza-8a-methyl-8a-homoerythromycin A [Example 94]”, the MIC in [1] was 0.12 µg/mL; in assay [13], 0.25 µg/mL; in assay [2], 0.5 µg/mL; in assay [3], at most 0.06 µg/mL; in assay [4] it was 4 µg/mL; in [14] it was at most 0.06 µg/mL. Besides, the MIC is at most 0.06 µg/mL in assay [8], 0.12 µg/mL against Escherichia coli MB 2884, 0.5 µg/mL in assay [15] and 1 µg/mL in assay [10].
